The nature of series [1]: Cytotoxicity against monkey LLC-MK2 cells incubated for 72 hrs by MTT assay. The class given is toxicity, cell-based, Macaca mulatta. Particulars: rhesus monkey. (In general: Tetrazolium assays rely on reduction of a dye to a coloured formazan, in cell work by metabolically active cells.)
For the next series, the system named is Trypanosoma cruzi. As to the kind of experiment: Antitrypanosomal activity against Trypanosoma cruzi Tulahuen lacZ expressing beta-galactosidase amastigotes infected in monkey LLC-MK2 cells assessed as inhibition of amastigotes pre-infected in cells for 48 hrs followed by compound addition and measured after 72 hrs by CPRG reagent based absorbance analysis. The class given is functional, organism-based.

Series [2] in a line: Selectivity index, ratio of CC50 for monkey LLC-MK2 cells to IC50 for Trypanosoma cruzi Tulahuen lacZ expressing beta-galactosidase amastigotes infected monkey LLC-MK2 cells. The following applies: read-out: Ratio CC50/IC50. It counts as toxicity.
Another series concerns Leishmania amazonensis. As to the kind of experiment: Antileishmanial activity against Leishmania amazonensis IFLA/BR/1967/PH8 amastigotes infected in mouse peritoneal macrophage assessed as inhibition of parasite growth pre-infected in cells for 4 hrs followed by compound addition and measured after 24 hrs by Giemsa staining based analysis. Particulars: IFLA/BR/1967/PH8, Peritoneal macrophage. It counts as functional, organism-based.

Series [3] can be described thus: Selectivity index, ratio of CC50 for cytotoxicity against monkey LLC-MK2 cells to IC50 for antileishmanial activity against Leishmania amazonensis IFLA/BR/1967/PH8 amastigotes infected in mouse peritoneal macrophage. The class given is toxicity, cell-based. Particulars: read-out: Ratio CC50/IC50.

One may read the CC50 as the concentration that lowers cell viability or growth by half. Usually IC50 stands for the concentration at which inhibition is half-maximal.

`O=[N+]([O-])c1nccn1Cc1cc(-c2ccccc2)no1`: the half-maximal cytotoxic concentration (CC50) at 72 h in series [1] is over 50 µM. The IC50 turned out to be 4 µM in the series with Trypanosoma cruzi and 33.1 µM with Leishmania amazonensis. Moreover, the selectivity ratio in series [2] was over 12.3; in series [3] it was over 1.5.
In the same order, the values of `N#Cc1ccc(-c2cc(Cn3ccnc3[N+](=O)[O-])on2)cc1` are over 50 µM, over 100 µM, 34.6 µM, over 0.6 and over 1.4.
Consider `O=[N+]([O-])c1nccn1Cc1cc(-c2ccc(Br)cc2)no1`, for which the midpoint of cytotoxicity in series [1], the CC50 at 72 h, lay at 43 µM. For the same molecule, the IC50 in the series with Trypanosoma cruzi worked out at 5.1 µM; in the series with Leishmania amazonensis it was 17.4 µM. The results for the selectivity ratio in series [2] and in series [3] were 8.4 and over 2.5, respectively.
Regarding `COc1cc(-c2cc(-c3ccc4c(c3)OCO4)no2)cc(OC)c1OC`, in the series with Leishmania amazonensis, the IC50 stood at 1.4 µM.
As to `COc1ccc(-c2cc(Cn3ccnc3[N+](=O)[O-])on2)cc1O`, the CC50 at 72 h in series [1] is over 50 µM. The IC50 is 3 µM in the series on Trypanosoma cruzi and 17.1 µM in the series on Leishmania amazonensis. The selectivity ratio in series [2] was over 16.6; in series [3], over 2.9.
On the same counts, the results for `O=[N+]([O-])c1nccn1Cc1cc(-c2ccc(Cl)cc2)no1` are 48 µM, 1.5 µM, 26.6 µM, 32.5 and 1.8.
Turning to `O=[N+]([O-])c1nccn1Cc1cc(-c2ccc(C(F)(F)F)cc2)no1`, in series [1], the CC50 at 72 h stood at 18.9 µM. Further, the results for the IC50 with Trypanosoma cruzi and in the series on Leishmania amazonensis were 23 µM and 18 µM, respectively. For the same molecule, the selectivity ratio in series [2] is 0.8; in series [3] it was 1.
`O=[N+]([O-])c1nccn1Cc1cc(-c2ccc(OC(F)(F)F)cc2)no1` yielded a CC50 at 72 h in series [1] of over 50 µM. For the same molecule, the IC50 in the series with Trypanosoma cruzi worked out at 15.2 µM; with Leishmania amazonensis, 35.6 µM. Moreover, the selectivity ratio in series [2] is over 3.3; in series [3], over 1.4.
The molecule `COc1cc(-c2cc(Cn3ccnc3[N+](=O)[O-])on2)cc(OC)c1OC` showed a CC50 at 72 h in series [1] of over 50 µM. The IC50 in the series on Trypanosoma cruzi was 1.9 µM; in the series with Leishmania amazonensis it was 14.6 µM. The selectivity ratio in series [2] is over 25.9; in series [3] it was over 3.4.
On the same counts, the results for `O=[N+]([O-])c1nccn1Cc1cc(-c2ccccn2)no1` are over 50 µM, 7.5 µM, 37.8 µM, over 6.7 and over 1.3.
In turn, `O=[N+]([O-])c1nccn1Cc1cc(-c2ccc(Cl)cc2Cl)no1` gave a CC50 at 72 h in series [1] of 43.2 µM. The IC50 is 3.7 µM in the series on Trypanosoma cruzi and 33.7 µM in the series with Leishmania amazonensis. Further, the selectivity ratio is over 11.4 in series [2] and 1.3 in series [3].
`O=[N+]([O-])c1nccn1Cc1cc(-c2ccc(N3CCN(c4ccccc4)CC3)cc2)no1` had a CC50 at 72 h in series [1] of over 50 µM. Also, the IC50 in the series on Trypanosoma cruzi and with Leishmania amazonensis was over 100 µM in each case. In addition, the selectivity ratio in series [2] was over 1; in series [3], over 0.5.
In series [1], `COc1ccc(-c2cc(Cn3ccnc3[N+](=O)[O-])on2)cc1Cl` gave a CC50 at 72 h of over 50 µM. The IC50 with Trypanosoma cruzi worked out at 1 µM; with Leishmania amazonensis it was 31.3 µM. The selectivity ratio in series [2] was over 49; in series [3], over 1.6.
With `Cc1ccc(-c2cc(Cn3ccnc3[N+](=O)[O-])on2)cc1`, in series [1], the CC50 at 72 h was over 50 µM. Further, the values for the half-inhibitory concentration (IC50) in the series with Trypanosoma cruzi and with Leishmania amazonensis were 9.3 µM and 26.7 µM, respectively. In addition, the selectivity ratio was over 5.4 in series [2] and over 1.9 in series [3].
On the same counts, the results for `COc1ccc(-c2cc(Cn3ccnc3[N+](=O)[O-])on2)cc1` are over 50 µM, 1.9 µM, 17.3 µM, over 25.6 and over 2.9.
In series [1], `CSc1ccc(-c2cc(Cn3ccnc3[N+](=O)[O-])on2)cc1` displayed a CC50 at 72 h of over 50 µM. The values for the IC50 with Trypanosoma cruzi and in the series on Leishmania amazonensis were 31.4 µM and 22.4 µM, respectively. Also, the selectivity ratio in series [2] is over 1.6; in series [3], over 2.2.
In the case of `N=C(N)c1ccc(OCCCCCOc2ccc(C(=N)N)cc2)cc1` [PENTAMIDINE], in the series with Leishmania amazonensis, the IC50 came out at 16.8 µM.
Regarding `COc1ccc(-c2cc(-c3cc(OC)c(OC)c(OC)c3)on2)cc1OC`, the IC50 with Leishmania amazonensis was 0.4 µM.
In series [1], `C[C@@H]1[C@H](O)[C@@H](C)/C=C/C=C/C=C/C=C/C=C/C=C/C=C/[C@H](O[C@@H]2O[C@H](C)[C@@H](O)[C@H](N)[C@@H]2O)C[C@@H]2O[C@](O)(C[C@@H](O)C[C@@H](O)[C@H](O)CC[C@@H](O)C[C@@H](O)CC(=O)O[C@H]1C)C[C@H](O)[C@H]2C(=O)O` [AMPHOTERICIN B] returned a CC50 at 72 h of 22.8 µM. In the series with Leishmania amazonensis, the 50% inhibitory concentration (IC50) is 2.3 µM. Also, the selectivity ratio in series [3] came to 9.87.
Take `O=[N+]([O-])c1nccn1Cc1cc(-c2ccc(N3CCCCCC3)cc2)no1`: in series [1], the CC50 at 72 h was over 50 µM. For the same molecule, the IC50 was found to be 3.9 µM with Trypanosoma cruzi and 25.1 µM in the series on Leishmania amazonensis. The selectivity ratio in series [2] was over 12.8; in series [3] it was over 1.9.
As to `COc1ccc(-c2cc(-c3cc(OC)c(OC)c(OC)c3)no2)cc1OC`, the IC50 in the series with Leishmania amazonensis was found to be 0.7 µM.
In series [1], `O=[N+]([O-])c1nccn1Cc1cc(-c2ccc(N3CCCCC3)cc2)no1` showed a CC50 at 72 h of over 50 µM. Moreover, the figures for the half-maximal inhibitory concentration (IC50) with Trypanosoma cruzi and with Leishmania amazonensis were 7.5 µM and 31.1 µM, respectively. The figures for the selectivity ratio in series [2] and in series [3] were over 6.7 and over 1.6, respectively.
Molecule `O=[N+]([O-])c1cccc(-c2cc(Cn3ccnc3[N+](=O)[O-])on2)c1` came in with a 50% cytotoxic concentration (CC50) at 72 h in series [1] of over 50 µM. Also, the IC50 stood at 5.3 µM with Trypanosoma cruzi and 35.1 µM with Leishmania amazonensis. For the same molecule, the values for the selectivity ratio in series [2] and in series [3] were over 9.4 and over 1.4, respectively.
`COc1ccc(-n2cc(-c3cc(OC)c(OC)c(OC)c3)nn2)cc1OC`: the IC50 with Leishmania amazonensis was determined as 29.2 µM.
In series [1], `O=[N+]([O-])c1nccn1Cc1cc(-c2cccnc2)no1` yielded a CC50 at 72 h of over 50 µM. In addition, the results for the IC50 with Trypanosoma cruzi and in the series on Leishmania amazonensis were 7.8 µM and 73.8 µM, respectively. Besides, the figures for the selectivity ratio in series [2] and in series [3] were over 6.4 and over 0.7, respectively.
In series [1], `COc1cccc(-c2cc(Cn3ccnc3[N+](=O)[O-])on2)c1` had a CC50 at 72 h of over 50 µM. Further, the IC50 with Trypanosoma cruzi is 11.2 µM; in the series on Leishmania amazonensis, 12.5 µM. For the same molecule, the figures for the selectivity ratio in series [2] and in series [3] were over 4.4 and over 4, respectively.
As to `COc1cc(-c2cn(-c3cc(OC)c(OC)c(OC)c3)nn2)cc(OC)c1OC`, in the series with Leishmania amazonensis, the IC50 amounted to 9.4 µM.
Consider `O=[N+]([O-])c1nccn1Cc1cc(-c2ccc(N3CCCC3)cc2)no1`, for which the CC50 at 72 h in series [1] was over 50 µM. In addition, the concentration for half-maximal inhibition (IC50) with Trypanosoma cruzi turned out to be 2.3 µM; with Leishmania amazonensis it was 9.9 µM. The selectivity ratio in series [2] was over 21.7; in series [3], over 5.
With `COc1cc(OC)cc(-c2cc(Cn3ccnc3[N+](=O)[O-])on2)c1`, in series [1], the CC50 at 72 h is over 50 µM. Further, the IC50 with Trypanosoma cruzi is 6 µM; with Leishmania amazonensis, 10.1 µM. For the same molecule, the figures for the selectivity ratio in series [2] and in series [3] were over 8.3 and over 4.9, respectively.
With `COc1cc(-c2cc(-c3cc(OC)c(OC)c(OC)c3)on2)cc(OC)c1OC`, the IC50 in the series on Leishmania amazonensis was 2.9 µM.
The same measure, in the same setting: to `COc1cc(-n2cc(-c3ccc4c(c3)OCO4)nn2)cc(OC)c1OC` belongs 4.4 µM.
The molecule `O=[N+]([O-])c1nccn1Cc1cc(-c2ccc(F)cc2)no1` displayed a CC50 at 72 h in series [1] of over 50 µM. For the same molecule, the IC50 in the series with Trypanosoma cruzi came to 3.3 µM; in the series with Leishmania amazonensis it was 24.2 µM. Also, the selectivity ratio was over 15.3 in series [2] and over 2.1 in series [3].
On the same counts, the results for `COc1ccccc1-c1cc(Cn2ccnc2[N+](=O)[O-])on1` are over 50 µM, 4.6 µM, 12.7 µM, over 10.9 and over 3.9.
`O=[N+]([O-])c1nccn1Cc1cc(-c2ccc(F)c(F)c2)no1` yielded a CC50 at 72 h in series [1] of over 50 µM. Besides, the 50% inhibitory concentration (IC50) in the series on Trypanosoma cruzi is 6.5 µM; in the series with Leishmania amazonensis, 17.7 µM. For the same molecule, the selectivity ratio is over 7.6 in series [2] and over 2.8 in series [3].
On the same counts, the results for `O=[N+]([O-])c1nccn1Cc1cc(-c2ccncc2)no1` are over 50 µM, 3.1 µM, 16.3 µM, over 16.3 and over 3.
The molecule `O=[N+]([O-])c1nccn1Cc1cc(-c2ccc(N3CCOCC3)cc2)no1` had a CC50 at 72 h in series [1] of over 50 µM. Also, the values for the IC50 in the series on Trypanosoma cruzi and with Leishmania amazonensis were 2.8 µM and 54.1 µM, respectively. Further, the selectivity ratio in series [2] is over 18; in series [3], over 0.9.
In the same order, the values of `O=[N+]([O-])c1ccc(-c2cc(Cn3ccnc3[N+](=O)[O-])on2)cc1` are 46.1 µM, 18.3 µM, 32.4 µM, 2.5 and 1.4.
In series [1], `Nc1ccc(-c2cc(Cn3ccnc3[N+](=O)[O-])on2)cc1` came in with a cytotoxic concentration (CC50) at 72 h of over 50 µM. Besides, the values for the IC50 with Trypanosoma cruzi and in the series with Leishmania amazonensis were 6.2 µM and 21.7 µM, respectively. Moreover, the selectivity ratio in series [2] is over 8.1; in series [3] it was over 2.3.
In series [1], `O=[N+]([O-])c1nccn1Cc1cc(-c2cccc(Cl)c2)no1` displayed a CC50 at 72 h of over 50 µM. Also, the IC50 with Trypanosoma cruzi turned out to be 9.3 µM; with Leishmania amazonensis, 10.2 µM. Also, the selectivity ratio is over 5.3 in series [2] and over 4.9 in series [3].
Regarding `COc1ccc(-c2cn(-c3cc(OC)c(OC)c(OC)c3)nn2)cc1OC`, the half-maximal inhibitory concentration (IC50) in the series with Leishmania amazonensis stood at 5.6 µM.

(Values after ChEMBL document CHEMBL5634085, “Design, synthesis and antitrypanosomatid activity of 2-nitroimidazole-3,5-disubstituted isoxazole compounds based on benznidazole” (Eur J Med Chem, 2023).)
